Experiment [1] relates to Rat type II alveolar cell, L2 cell line. Nature of the experiment: Cell survival test (MTT analysis) under H2O2 oxidative stress. To be noted: 24 hours, control group = 100%. In kind it is cell-based. On the procedure:
The rat type II alveolar cell, L2 cell line (ATCC® CCL149™) were seeded into a 96-well plate at a density of 5×10^3 cells/well, 48 wells in total (separated into a control group and five experimental groups, 8 wells for each group). The cells were cultured until the next day, and then the mediums were removed. Each group was respectively treated under the following conditions to conduct follow-up experiments:
(1) Control group: cells were cultured in a F-12K medium (Kaighn's Modification of Ham's F-12 Medium, ATCC® 30-2004™) for 24 hours;
(2) Group 1: cells were cultured in a F-12K medium containing H2O2 (0.1 mM) for 24 hours;
(3) Group 2: cells were cultured in a F-12K medium containing H2O2 (0.1 mM) and compound (1) (5 μg/ml) for 24 hours;
(4) Group 3: cells were cultured in a F-12K medium containing H2O2 (0.1 mM) and N-acetylcysteine (NAC) (2 mM) for 24 hours;
(5) Group 4: cells were cultured in a F-12K medium containing H2O2 (0.2 mM) and compound (1) (5 μg/ml) for 24 hours; and
(6) Group 5: cells were cultured in a F-12K medium containing H2O2 (0.2 mM) and NAC (2 mM) for 24 hours.
The mediums were removed after culturing was complete, and then each group was respectively treated under the following conditions: F-12K mediums containing 10% of 3-(4,5-Dimethylthiazol-2-yl)-2,5-diphenyltetrazolium bromide (MTT) were added into each well, and cultured for 1 hour. Thereafter, the mediums were removed, and a suitable amount of dimethyl sulfoxide (DMSO) was added into the wells. An Enzyme-Linked ImmunoSorbent Assay reader (ELISA reader) was then used for detecting the absorbance of each group at a wavelength of 595 nm (OD595nm). The average value of each group was respectively calculated (n=8), and then the result of the control group served as the basis for calculating the relative survival rates of the other groups.

In a further experiment the test system is type I collagen. Nature of the experiment: Type I collagen expression in TGF-β1-induced NHLF, western blotting (2-2). It counts as cell-based, human. To be noted: TGF-β1-only control group = 1. On the procedure: (§1) Normal Human lung fibroblasts (NHLF) were seeded into 6 cm culture dishes at a density of 2×10^5 cells/dish, comprising a control group and six experimental groups (7 dishes in total). The cells were cultured until the next day, and then the mediums were removed. Each group was respectively treated under the following conditions to conduct follow-up experiments: • (1) Positive control group: cells were cultured in a FGM-2 medium containing 1% serum and TGF-β1 (5 ng/ml) for 36 hours; • (2) Group I: cells were firstly cultured in a FGM-2 medium containing 1% serum and TGF-β1 (5 ng/ml) for 12 hours, and then compound (1) was added into the medium to provide a final concentration of 15 μg/ml; thereafter, the cells were cultured for another 24 hours; • (3) Group II: cells were firstly cultured in a FGM-2 medium containing 1% serum and TGF-β1 (5 ng/ml) for 12 hours, and then compound (1) was added into the medium to provide a final concentration of 25 μg/ml; thereafter, the cells were cultured for another 24 hours; • (4) Group III: cells were firstly cultured in a FGM-2 medium containing 1% serum and TGF-β1 (5 ng/ml) for 12 hours, and then compound (1) was added into the medium to provide a final concentration of 35 μg/ml; thereafter, the cells were cultured for another 24 hours; • (5) Group IV: cells were firstly cultured in a FGM-2 medium containing 1% serum and TGF-β1 (5 ng/ml) for 12 hours, and then the Pirfenidone was added into the medium to provide a final concentration of 100 μg/ml; thereafter, the cells were cultured for another 24 hours; • (6) Group V: cells were firstly cultured in a FGM-2 medium containing 1% serum and TGF-β1 (5 ng/ml) for 12 hours, and then the Pirfenidone was added into the medium to provide a final concentration of 250 μg/ml; thereafter, the cells were cultured for another 24 hours; and • (7) Group VI: cells were firstly cultured in a FGM-2 medium containing 1% serum and TGF-β1 (5 ng/ml) for 12 hours, and then the Pirfenidone was added into the medium to provide a final concentration of 500 μg/ml; thereafter, the cells were cultured for another 24 hours.
(§2) Thereafter, the proteins in the cells of each group were extracted, and the expressions of type I collagen, BMP-7 protein and TGF-β protein in the NHLF cells of each group were measured with western blotting. The results of the control group served as the basis for calculating the relative expression levels of the other groups.
Background: Immunoblotting shows a protein as a band on a membrane.

The test system of experiment [2] is BMP-7 protein. The experiment can be described thus: BMP-7 protein expression in TGF-β1-induced NHLF, western blotting (2-2). To be noted: TGF-β1-only control group = 1. It counts as cell-based, human. On the procedure: as §1, §2
Experiment [3] deals with TGF-β protein. The experiment can be described thus: TGF-β protein expression in TGF-β1-induced NHLF, western blotting (2-2). In kind it is cell-based, human. To be noted: TGF-β1-only control group = 1. The method, then:
as §1, §2

The test system of experiment [4] is BMP-7 protein. Nature of the experiment: BMP-7 protein expression in TGF-β1-induced NHLF, western blotting (Example 4). To be noted: uninduced control = 1, TGF-β1-only group A = 0.19. In kind it is cell-based, human. The method, then:
(§3) Normal Human lung fibroblasts (NHLF) were seeded into 6 cm culture dishes at a density of 2×10^5 cells/dish, comprising a control group and five experimental groups (6 dishes in total). The cells were cultured until the next day, and then the mediums were removed. Each group was respectively treated under the following conditions to conduct follow-up experiments: • (1) Control group: cells were cultured in a FGM-2 medium containing 1% serum for 36 hours; • (2) Group A: cells were cultured in a FGM-2 medium containing 1% serum and TGF-β1 (5 ng/ml) for 36 hours; • (3) Group B: cells were firstly cultured in a FGM-2 medium containing 1% serum and TGF-β1 (5 ng/ml) for 12 hours, and then compound (1) was added into the medium to provide a final concentration of 15 μg/ml; thereafter, the cells were cultured for another 24 hours; • (4) Group C: cells were firstly cultured in a FGM-2 medium containing 1% serum and TGF-β1 (5 ng/ml) for 12 hours, and then compound (1) was added into the medium to provide a final concentration of 30 μg/ml; thereafter, the cells were cultured for another 24 hours; • (5) Group D: cells were firstly cultured in a FGM-2 medium containing 1% serum and TGF-β1 (5 ng/ml) for 12 hours, and then compound (2) was added into the medium to provide a final concentration of 100 μg/ml; thereafter, the cells were cultured for another 24 hours; and • (6) Group E: cells were firstly cultured in a FGM-2 medium containing 1% serum and TGF-β1 (5 ng/ml) for 12 hours, and then compound (2) was added into the medium to provide a final concentration of 200 μg/ml; thereafter, the cells were cultured for another 24 hours.
(§4) Thereafter, the proteins in the cells of each group were extracted, and the expressions of BMP-7 protein, TGF-β protein and p-smad2/3 protein in the NHLF cells of each group were measured with western blotting. The results of the control group served as the basis for calculating the relative expression levels of the other groups.

Experiment [5] has as its system TGF-β protein. Nature of the experiment: TGF-β protein expression in TGF-β1-induced NHLF, western blotting (Example 4). In kind it is cell-based, human. The conditions noted are these: uninduced control = 1, TGF-β1-only group A = 1.75. The method, then:
as §3, §4

For another experiment, the system named is p-smad2/3 protein. Nature of the experiment: p-smad2/3 protein expression in TGF-β1-induced NHLF, western blotting (Example 4). In kind it is cell-based, human. The conditions noted are these: uninduced control = 1, TGF-β1-only group A = 1.42. On the procedure: as §3, §4
The mark [6] stands for this setting: Group IV: TGF-β1 5 ng/ml 12 h, then Pirfenidone 100 μg/ml 24 h.
The mark [7] stands for this setting: Group V: TGF-β1 5 ng/ml 12 h, then Pirfenidone 250 μg/ml 24 h.
Where [8] appears, read: Group VI: TGF-β1 5 ng/ml 12 h, then Pirfenidone 500 μg/ml 24 h.
Where [9] appears, read: Group D: TGF-β1 5 ng/ml 12 h, then compound (2) 100 μg/ml 24 h.
The mark [10] stands for this setting: Group E: TGF-β1 5 ng/ml 12 h, then compound (2) 200 μg/ml 24 h.

For `CC(=O)N[C@@H](CS)C(=O)O` [NAC, N-acetylcysteine, reference compound], the Relative survival rate in experiment [1] (Group 3: H2O2 0.1 mM + NAC 2 mM, H2O2 0.1 mM alone = 38.9%) amounted to 101.9%; in experiment [1] (Group 5: H2O2 0.2 mM + NAC 2 mM), 83.1%.
`Cc1ccc(=O)n(-c2ccccc2)c1` [Pirfenidone, reference compound]: the “Relative expression level (fold) Type I collagen” value amounted to 0.95 fold with type I collagen (setting [6]), 0.57 fold with type I collagen (setting [7]) and 0.50 fold in the experiment on type I collagen (setting [8]). For the same molecule, the figures for the “Relative expression level (fold) BMP-7 protein” value in the experiment on BMP-7 protein [2] (setting [6]), in the experiment on BMP-7 protein [2] (setting [7]) and in the experiment on BMP-7 protein [2] (setting [8]) were 1.52 fold, 1.43 fold and 1.34 fold, respectively. The “Relative expression level (fold) TGF-β protein” value is given as 0.67 fold with TGF-β protein [3] (setting [6]), 0.64 fold in the experiment on TGF-β protein [3] (setting [7]) and 0.67 fold with TGF-β protein [3] (setting [8]).
Consider `CCCCC(=O)c1ccccc1C(=O)O` [compound (2)], for which the “Relative expression level (fold) BMP-7 protein” value in the experiment with BMP-7 protein [4] (setting [9]) was 0.11 fold; in the experiment on BMP-7 protein [4] (setting [10]), 0.08 fold. Moreover, the “Relative expression level (fold) TGF-β protein” value is listed as 0.46 fold in the experiment on TGF-β protein [5] (setting [9]) and 0.29 fold in the experiment on TGF-β protein [5] (setting [10]). The “Relative expression level (fold) p-smad2/3 protein” value in the experiment with p-smad2/3 protein (setting [9]) was 1.12 fold; with p-smad2/3 protein (setting [10]), 1.05 fold.

The values are drawn from patent US20170333391A1, “METHOD FOR DELAYING THE ONSET OF PULMONARY FIBROSIS OR TREATING PULMONARY FIBROSIS” (EVERFRONT BIOTECH INC., priority 2016, published 2017).
